Read-outs that look alike come from different tables or passages of the source.
What was measured:
[1] = cited from earlier work
[2] = PK phase, single IV or PO dose of lacosamide in mice (Example 12); assay type: in vivo, male CD-1 mice; conditions: male, CD-1, mouse, plasma
Source text: For the PK phase, male CD-1 mice were assigned to treatment groups according to the study design in Table Ex 12 below. IV dosing was done via tail vein injection and oral delivery was done with oral gavage tube.

[3] = system: motor coordination in mice; assay: Rotarod test in mice, PD phase (Example 12); assay type: in vivo
Protocol: The rotarod (Ugo Basile, […]) is a device that allows for quantitative measurement of motor coordination in rodents. Animals are pre-trained prior to testing on the rotarod.
24 hours prior to the test day, mice are trained to run on the accelerating rotarod for at least 120 s in two consecutive trials. The mice are given up to 12 trials to achieve this performance criterion. Any mice not meeting this criterion are excluded from the test study.
Mice are randomized to treatment groups (vehicle; IV: 3, 10 30 mg/kg; PO: 10, 30, 90 mg/kg). On the day of the test, the animals are dosed with test article and placed on the rotarod 5 minutes post-dosing. The rotarod is accelerated from 0-40 rpm over a 5 minute session, using the built-in function of the equipment. The rotarod test is repeated for each mouse at 15, 30 and 60 minutes post-drug administration. Animals that stay on the rotarod are assigned a run-time of 300 seconds. The time that each animal stays on the rotarod prior to falling is automatically recorded as the animal's fall latency.
The latency to fall time on the rotarod recorded for each animal is reported at each time point post-dose. Latency to fall is averaged (±SEM) across the 10 animals in each treatment group at each time point.

[4] = system: motor coordination in rats; assay: Rotarod, IR vs ER subcutaneous infusion profile in rats (Example 14); assay type: in vivo; conditions: at Cmax
Protocol: The example investigates reducing the rate of rise of plasma concentrations with the ER profile compared to the IR profile results in reduced CNS impairment. CNS side effects are measured as an impairment of motor coordination in rodents using the rotarod. Performance of rodents in a battery of neurobehavioral tests conducted during the infusion period are used as secondary endpoints as measures of CNS impairment.
The infusion protocols are designed to produce pharmacokinetic profiles of lacosamide similar to that of IR lacosamide administered twice-a-day (BID) to humans (IR profile) or an extended release profile administered once-a-day (QD) to humans (ER profile) at varying doses administered as IR BID or ER QD.
Rats are pre-trained on the rotarod prior to testing and assigned to groups based on their body weights.
Following the period of acclimation, rats are surgically implanted with subcutaneous programmable pumps (iPRECIO), per the manufacturer's instructions. […]
On the test day at the specified time point, rats are placed on the rotarod and the rotarod is accelerated from 0-40 rpm over a 5 minute session, using the built-in function of the equipment. […] The time that each animal stays on the rotarod prior to falling is automatically recorded as the animal's fall latency. […]

[5] = Lacosamide plasma pharmacokinetics, ER infusion vs IP bolus in rats (Example 15); assay type: in vivo; conditions: for Slope (rate of rise of plasma concentration): from initiation of drug administration; for Tmax: read-out: median Tmax; for AUC(0-t): read-out: AUC0-18
[6] = system: motor coordination in rats; assay: Rotarod, ER profile vs IR profile of lacosamide in rats (Example 15); assay type: in vivo
Protocol: It is hypothesized that reducing the rate of rise of plasma concentrations with the ER profile compared to the IR profile results in reduced CNS impairment. CNS side effects were measured as an impairment of motor coordination in rodents using the rotarod. The rotarod (Ugo Basile, Italy) is a device that allows for quantitative measurement of motor coordination in rodents. Animals experiencing CNS side effects such as dizziness would fall off the rotarod faster than normal animals.
An acceleration protocol was used for training and test sessions, wherein the rotarod was accelerated from 0-40 rpm over a 5 minute session. All rats were then surgically implanted subcutaneously with programmable pumps (iPRECIO, Durect Corporation, Cupertino, Calif.), per the manufacturer's instructions, under anesthesia and using aseptic techniques.
Three days following pump implantation surgery, all rats were tested on the rotarod to obtain baseline performance values. Rats were assigned to treatment groups such that the mean time spent on the rotarod was similar for each group. Four groups of rats were utilized in this study, with 8-10 rats per group:
The total pump infusion duration was 18 hours. Control animals (group 1) were infused with vehicle (20% N-methyl-2-pyrrolidone, NMP) using the same infusion protocol. […] Control animals (group 3) were implanted with pumps containing vehicle and were given an IP bolus of vehicle.
Immediately following the 18 hour pump infusion for the ER groups, or 1 hour after IP injection for the IR groups, rats were placed on the rotarod and the rotarod was accelerated from 0-40 rpm over a 5 minute session, using the built-in function of the equipment. Animals that stayed on the rotarod for the entire session were assigned a run-time of 300 seconds. The time that each animal stayed on the rotarod prior to falling was automatically recorded.

[7] = aqueous systems; cited from earlier work
[8] = cited from earlier work; remark: listed apart in the source

## NC(=O)N1c2ccccc2CC(=O)c2ccccc21 [oxcarbazepine, 10,11-dihydro-10-oxo-5H-dibenz(b,f)azepine-5-carboxamide]
[1]; 600 mg IR BID
  AUC0-24: 16.8 µg·h/mL
  Cmax: 2720 ng/mL
[1]; human
  elimination / plasma / pharmacokinetic half-life: about 20 hours
[1]; human, listed as Oxcarbazepine
  elimination / plasma / pharmacokinetic half-life: approximately 2 hours
[1]; oral dosing, human
  Tmax: approximately 3 hours

## CCCC(CCC)C(=O)O [valproic acid, 2-propylpentanoic acid]
[1]; human
  elimination / plasma / pharmacokinetic half-life: 9 to 16 h

## CC(=O)N[C@H](CO)C(=O)NCc1ccccc1 [O-desmethyl metabolite]
[1]; CYP2C19 poor metabolizers compared to extensive metabolizers
  reduction of concentrations and amount excreted into urine: about 70%
[1]; human
  elimination / plasma / pharmacokinetic half-life: 15 to 23 h
[1]; oral dosing, human
  Tmax: 0.5 to 12 h

## COC[C@@H](NC(C)=O)C(=O)NCc1ccccc1 [lacosamide, R-2-acetamido-N-benzyl-3-methoxypropionamide]
[2]; 90 mg/kg oral dose
  Cmax: ~40000 ng/mL
[2]; IV route
  Tmax: < 0.0833 h
[2]; oral route
  Tmax: ~0.25 h
[2]; single 10 mg/kg IV dose
  Cmax: ~15000 ng/mL
[2]; single 30 mg/kg IV dose
  Cmax: ~40000 ng/mL
[2]; single 30 mg/kg oral dose
  Cmax: ~15000 ng/mL
[3]; doses with equivalent Cmax but different Tmax (e.g. 30 mg/kg IV and 90 mg/kg PO)
  latency to fall, PO compared to IV: greater latency to fall on the rotarod (less impairment)
[3]; same route of administration (IV or PO)
  effect of an increase in dose on latency to fall: decrease in the latency to fall time on the rotarod
[4]; given dose level
  time spent on the rotarod, IR profile compared to ER group: significantly reduced time spent on the rotarod (i.e. greater impairment)
[4]; given infusion protocol, 400 vs 800 mg/day HED
  time spent on the rotarod vs dose: decrease in a dose-dependent manner
[5]; Group 2 (ER)
  Slope (rate of rise of plasma concentration): 1.4 µg/mL/h
[5]; Group 4 (IR)
  Slope (rate of rise of plasma concentration): 62 µg/mL/h
[5]; PK satellite rats
  reduction in the rate of the rise (slope) ER compared to IR: 98%
[5]; rat, plasma, 19 mg/kg, IP bolus, IR profile (Group 4), PK satellite rats
  Tmax: 0.75 h
[5]; rat, plasma, intraperitoneal, 19 mg/kg, group 4 (IR profile)
  concentration at 1 h: ~19000 ng/mL
[5]; rat, plasma, intraperitoneal, 122 mg/kg, group 2 (ER profile)
  concentration at 18 h: ~19000 ng/mL
[5]; rat, plasma, ip, 19 mg/kg, Group 4 (IR), PK satellite rats
  Cmax: 22000 ng/mL
[5]; rat, plasma, ip, 19 mg/kg, Group 4 (IR)
  AUC(0-t): 18 µg·h/mL
[5]; rat, plasma, ip, 122 mg/kg, ER infusion protocol (Group 2), PK satellite rats
  Tmax: 15 h
[5]; rat, plasma, ip, 122 mg/kg, Group 2 (ER), 18 hour infusion
  AUC(0-t): 217 µg·h/mL
[5]; rat, plasma, ip, 122 mg/kg, Group 2 (ER), PK satellite rats
  Cmax: 19000 ng/mL
[6]; ER groups, p>0.05
  percent change from baseline in time on the rotarod vs vehicle: not statistically different
[6]; ER profile (group 2), vehicle 27% increase
  increase in time on the rotarod from baseline: 45%
[6]; IR profile, IP bolus (group 4), vehicle 54% increase
  reduction in time on the rotarod from baseline: 55%
[1]; human
  elimination / plasma / pharmacokinetic half-life: about 13 hours
[1]; in vivo
  effect of CYP2C19 polymorphism on the pharmacokinetics: no significant effect
[7]
  solubility: about 20 mg/ml

## CC[C@@H](C(N)=O)N1CCCC1=O [levetiracetam, (S)-alpha-ethyl-2-oxo-pyrrolidine acetamide]
[8]; 4000 mg daily, untitrated study
  patients reporting somnolence: Approximately 45%
[8]; compared to 8% with placebo
  patients with somnolence: 14.8%
[1]; fasted subjects
  Tmax: approximately one
[1]; human
  elimination / plasma / pharmacokinetic half-life: about 7 hours
[1]; human, listed as Levetiracetam
  elimination / plasma / pharmacokinetic half-life: 6 to 8 h
[1]; in vivo
  AUC0-24: 300 to 350 µg·h/mL
[1]; mostly unmetabolized form
  renal excretion rate: 0.6 mL/min/kg

## CCCC(CCC)C(=O)O [divalproex sodium]
[1]; human
  elimination / plasma / pharmacokinetic half-life: about 15 hours

## C=CC(N)CCC(=O)O (racemic) [vigabatrin, (RS)-4-aminohex-5-enoic acid]
[1]; at steady state
  Cmax: 61000 ng/mL
  T1/2: 7.5 h
[1]; human
  elimination / plasma / pharmacokinetic half-life: about 10 hours
[1]; oral dosing, human
  Tmax: approximately 1 hours

## NC(=O)N1c2ccccc2CC(O)c2ccccc21 (stereo not shown) [MDH, 10-monohydroxy metabolite]
[1]; human
  elimination / plasma / pharmacokinetic half-life: 9 h

Reference: patent US10987324B2, “Methods and compositions for the treatment of seizure-related disorders” (Adamas Pharmaceuticals, Inc., priority 2015, dated 2021)
